Patent US8426394B2, “Progesterone antagonists such as CDB-4124 in the treatment of endometriosis, uterine fibroids, dysmenorrhea, breast cancer, etc” (Repros Therapeutics Inc., priority 2008, dated 2013)

Key:
[1] = molecular target: T1, glucocorticoid receptor (rbGR) (Oryctolagus cuniculus, UniProt P59667); experiment: Glucocorticoid receptor binding / anti-glucocorticoid receptor activity; set-up: species or system rabbit
T1 construct: cytosol containing PR or GR were prepared in TEGMD buffer; from tissue; host or cells: thymus of estradiol-primed immature rabbits (cytosol)
T1 sequence (P59667 1-772): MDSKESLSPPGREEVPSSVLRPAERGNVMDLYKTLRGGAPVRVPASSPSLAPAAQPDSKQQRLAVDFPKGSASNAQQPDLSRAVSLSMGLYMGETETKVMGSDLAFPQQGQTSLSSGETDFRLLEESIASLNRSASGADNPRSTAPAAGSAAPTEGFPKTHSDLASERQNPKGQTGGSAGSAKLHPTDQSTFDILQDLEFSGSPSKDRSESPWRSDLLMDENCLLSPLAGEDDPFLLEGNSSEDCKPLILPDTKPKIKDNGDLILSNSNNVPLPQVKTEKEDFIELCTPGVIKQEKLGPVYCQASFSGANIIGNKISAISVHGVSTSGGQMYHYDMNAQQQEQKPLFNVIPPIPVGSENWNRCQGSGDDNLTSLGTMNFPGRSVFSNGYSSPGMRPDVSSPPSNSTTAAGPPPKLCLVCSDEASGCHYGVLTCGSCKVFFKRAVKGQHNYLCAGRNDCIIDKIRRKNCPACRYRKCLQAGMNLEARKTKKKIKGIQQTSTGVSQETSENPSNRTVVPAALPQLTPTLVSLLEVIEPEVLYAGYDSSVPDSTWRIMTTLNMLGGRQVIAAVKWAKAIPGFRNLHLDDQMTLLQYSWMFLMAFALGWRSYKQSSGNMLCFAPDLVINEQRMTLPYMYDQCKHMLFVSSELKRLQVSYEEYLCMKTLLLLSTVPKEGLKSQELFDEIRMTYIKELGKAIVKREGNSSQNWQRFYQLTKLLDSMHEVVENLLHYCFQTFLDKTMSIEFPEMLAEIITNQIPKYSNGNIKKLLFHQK
Protocol: Certain antiprogestins were tested in receptor-binding assays for their ability to bind rabbit progesterone receptor (rbPR) and glucocorticoid receptor (rbGR). […] For PR binding, the cytosol was incubated with 6 nM 1,2-[^3H]progesterone (50.0 Ci/mmole) and competitors were added at concentrations from 2 to 100 nM. For binding to GR, the cytosol was incubated with 6 nM 6,7-[^3H]-dexamethasone (40 Ci/mmol) and test compounds were added at concentrations from 20 to 100 nM. After overnight incubation at 4 C, bound and unbound [^3H] steroids were separated by addition of dextran-coated charcoal and centrifugation at 2100×g for 15 min at 4 C. Supernatants containing the [3H]-steroid receptor complexes were decanted into vials containing 4 ml Optifluor (Packard Instrument Co.), vortexed, equilibrated in a liquid scintillation counter for 30 minutes and then counted for 2 minutes. […] The standards for the PR and GR assays were unlabeled progesterone and dexamethasone, respectively.

[2] = system: females suffering from endometriosis; experiment: Example 12: 12.5 mg CDB-4124 beginning at day 5 versus day 15 of the menstrual cycle; format: in vivo, human; settings: 12.5 mg for a six-month period
Protocol: Females suffering from endometriosis are divided into two groups: a first group receives 12.5 mg of CDB-4124 for a six-month period beginning at day 5 of each female's menstrual cycle; a second group receives 12.5 mg of CDB-4124 for a six-month period beginning at day 15 of each female's menstrual cycle. Endometrial thickness is monitored regularly throughout the six-month period.

COCC(=O)[C@@]1(OC(C)=O)CC[C@H]2[C@@H]3CCC4=CC(=O)CCC4=C3[C@@H](c3ccc(N(C)C)cc3)C[C@@]21C [CDB-4124, 21-methoxy-17α-acetoxy-11β-(4 N,N-dimethylaminophenyl)-19-norpregna-4,9-diene-3,20-dione]
anti-glucocorticoid receptor activity / glucocorticoid receptor binding [1]: minimal
endometrial thickening, group begun at day 15 versus group begun at day 5 [2]: lesser degree of endometrial thickening
